Assay results reported in patent US8735414B2 (priority 2009, dated 2014).

tested on: bicistronic HCV replicon (replicon RNA, GenBank Accession No. AJ242654); assay: HCV Replicon Assay; type: cell-based; conditions: Hepatitis C virus, 72 h, read-out: Replicon IC50

Structure (SMILES)	IC50
C=CCc1cc2c(cc1F)cc(-c1ccc(S(=O)(=O)N[C@@H](C)C(F)(F)F)cn1)n2-c1ncccn1 [compound 969, 6-[5-fluoro-6-(prop-2-en-1-yl)-1-(pyrimidin-2-yl)-1H-indol-2-yl]-N-[(2S)-1,1,1-trifluoropropan-2-yl]pyridine-3-sulfonamide]	< 500 nM
Cc1cc2c(cc1F)c(C#N)c(-c1ccc(S(=O)(=O)N[C@H](C)C(F)(F)F)cn1)n2-c1ncccn1 [compound 695, 6-[3-cyano-5-fluoro-6-methyl-1-(pyrimidin-2-yl)-1H-indol-2-yl]-N-[(2R)-1,1,1-trifluoropropan-2-yl]pyridine-3-sulfonamide]	< 500 nM
Cc1cc2c(cc1F)cc(-c1ccc(S(=O)(=O)N[C@@H](C)C(F)(F)F)cn1)n2-c1nncs1 [compound 958, 6-[5-fluoro-6-methyl-1-(1,3,4-thiadiazol-2-yl)-1H-indol-2-yl]-N-[(2S)-1,1,1-trifluoropropan-2-yl]pyridine-3-sulfonamide]	500 to 2000 nM
Cc1cc2c(cc1F)c(C(=O)O)c(-c1ccc(S(=O)(=O)N[C@@H](C)C(F)(F)F)cn1)n2C1CCCC1 [compound 758, (S)-1-cyclopentyl-5-fluoro-6-methyl-2-(5-(N-(1,1,1-trifluoropropan-2-yl)sulfamoyl)pyridin-2-yl)-1H-indole-3-carboxylic acid]	< 500 nM
COc1ccnc(-n2c(-c3ccc(S(=O)(=O)N[C@@H](C)C(F)(F)F)cn3)c(C#N)c3cc(F)c(C)cc32)c1 [compound 816, 6-[3-cyano-5-fluoro-1-(4-methoxypyridin-2-yl)-6-methyl-1H-indol-2-yl]-N-[(2S)-1,1,1-trifluoropropan-2-yl]pyridine-3-sulfonamide]	< 500 nM
CCc1cc2c(cc1F)c(C#N)c(-c1ccc(S(=O)(=O)N[C@H](C)C(F)(F)F)cn1)n2-c1ccccn1 [compound 879, 6-[3-cyano-6-ethyl-5-fluoro-1-(pyridin-2-yl)-1H-indol-2-yl]-N-[(2R)-1,1,1-trifluoropropan-2-yl]pyridine-3-sulfonamide]	< 500 nM
Cc1ccc2c(C#N)c(-c3ccc(S(=O)(=O)N[C@@H](C)C(F)(F)F)cn3)n(-c3ccccc3)c2c1 [compound 440, 6-(3-cyano-6-methyl-1-phenyl-1H-indol-2-yl)-N-[(2S)-1,1,1-trifluoropropan-2-yl]pyridine-3-sulfonamide]	< 500 nM
CCc1cc2c(cc1F)c(C(N)=O)c(-c1ccc(S(=O)(=O)N[C@@H](C)C(F)(F)F)cn1)n2-c1cccnc1 [compound 1040, 6-ethyl-5-fluoro-1-(pyridin-3-yl)-2-(5-{[(2S)-1,1,1-trifluoropropan-2-yl]sulfamoyl}pyridin-2-yl)-1H-indole-3-carboxamide]	< 500 nM
CCc1cc2c(cc1F)c(C#N)c(-c1ccc(S(=O)(=O)N[C@@H](C)C(F)(F)F)cn1)n2C1CC1 [compound 910, 6-(3-cyano-1-cyclopropyl-6-ethyl-5-fluoro-1H-indol-2-yl)-N-[(2S)-1,1,1-trifluoropropan-2-yl]pyridine-3-sulfonamide]	< 500 nM
N#Cc1c(-c2ccc(S(=O)(=O)NC(CF)CF)cn2)n(C2CCCC2)c2ccc(Cl)cc12 [compound 72, 6-(5-chloro-3-cyano-1-cyclopentyl-1H-indol-2-yl)-N-(1,3-difluoropropan-2-yl)pyridine-3-sulfonamide]	< 500 nM
CSc1ccc2c(C#N)c(-c3ccc(S(=O)(=O)NC(CF)CF)cn3)n(C3CCC3)c2c1 [compound 161, 6-[3-cyano-1-cyclobutyl-6-(methylsulfanyl)-1H-indol-2-yl]-N-(1,3-difluoropropan-2-yl)pyridine-3-sulfonamide]	< 500 nM
C[C@H](NS(=O)(=O)c1ccc(-c2c(C#N)c3ccc(CC(F)F)cc3n2CC2CC2)nc1)C(F)(F)F [compound 618, 6-[3-cyano-1-(cyclopropylmethyl)-6-(2,2-difluoroethyl)-1H-indol-2-yl]-N-[(2S)-1,1,1-trifluoropropan-2-yl]pyridine-3-sulfonamide]	< 500 nM
Cc1cc2c(cc1F)c(C#N)c(-c1ccc(S(=O)(=O)N[C@@H](C)C(F)(F)F)cn1)n2-c1ncc(F)cn1 [compound 924, 6-[3-cyano-5-fluoro-1-(5-fluoropyrimidin-2-yl)-6-methyl-1H-indol-2-yl]-N-[(2S)-1,1,1-trifluoropropan-2-yl]pyridine-3-sulfonamide]	< 500 nM
N#Cc1c(-c2ccc(S(=O)(=O)NC(CF)CF)cn2)n(C2CCCCC2)c2ccc(Cl)cc12 [compound 79, 6-(5-chloro-3-cyano-1-cyclohexyl-1H-indol-2-yl)-N-(1,3-difluoropropan-2-yl)pyridine-3-sulfonamide]	< 500 nM
C[C@H](NS(=O)(=O)c1cnc(-c2c(C#N)c3ccc(F)cc3n2C2CCCC2)nc1)C1CC1 [compound 497, 2-(3-cyano-1-cyclopentyl-6-fluoro-1H-indol-2-yl)-N-[(1S)-1-cyclopropylethyl]pyrimidine-5-sulfonamide]	< 500 nM
C[C@H](NS(=O)(=O)c1ccc(-c2c(C#N)c3cc(F)c(C4(C)OCCO4)cc3n2-c2ncccn2)nc1)C(F)(F)F [compound 927, 6-[3-cyano-5-fluoro-6-(2-methyl-1,3-dioxolan-2-yl)-1-(pyrimidin-2-yl)-1H-indol-2-yl]-N-[(2S)-1,1,1-trifluoropropan-2-yl]pyridine-3-sulfonamide]	< 500 nM

Structure (SMILES)	IC50
CCc1cc2c(cc1F)c(C#N)c(-c1ccc(S(=O)(=O)N[C@@H](C)C(F)(F)F)cn1)n2-c1ncc(F)cn1 [compound 946, 6-[3-cyano-6-ethyl-5-fluoro-1-(5-fluoropyrimidin-2-yl)-1H-indol-2-yl]-N-[(2S)-1,1,1-trifluoropropan-2-yl]pyridine-3-sulfonamide]	< 500 nM
C[C@H](NS(=O)(=O)c1ccc(-c2c(C#N)c3ccc(Cl)cc3n2C2CCCC2)nc1)C1CC1 [compound 155, 6-(6-chloro-3-cyano-1-cyclopentyl-1H-indol-2-yl)-N-[(1S)-1-cyclopropylethyl]pyridine-3-sulfonamide]	< 500 nM
CC(=O)c1cc2c(cc1F)c(C(C)=O)c(-c1ccc(S(=O)(=O)NC(C)(C)C)cn1)n2-c1ncccn1 [compound 939, N-tert-butyl-6-(3,6-diacetyl-5-fluoro-1-(pyrimidin-2-yl)-1H-indol-2-yl)pyridine-3-sulfonamide]	2000 to 5000 nM
Cc1cc2c(cc1O)c(C#N)c(-c1ccc(S(=O)(=O)N[C@H](C)C(F)(F)F)cn1)n2C1CCCC1 [compound 693, 6-(3-cyano-1-cyclopentyl-5-hydroxy-6-methyl-1H-indol-2-yl)-N-[(2R)-1,1,1-trifluoropropan-2-yl]pyridine-3-sulfonamide]	< 500 nM
CCc1cc2c(cc1F)c(C#N)c(-c1ccc(NS(=O)(=O)C(C)(C)C)nc1)n2[C@@H](C)C1CC1 [compound 1082, N-(5-{3-cyano-1-[(1S)-1-cyclopropylethyl]-6-ethyl-5-fluoro-1H-indol-2-yl}pyridin-2-yl)-2-methylpropane-2-sulfonamide]	< 500 nM
Cc1cc2c(cc1F)cc(-c1ccc(S(=O)(=O)N[C@@H](C)C(F)(F)F)cn1)n2-c1cncs1 [compound 959, 6-[5-fluoro-6-methyl-1-(1,3-thiazol-5-yl)-1H-indol-2-yl]-N-[(2S)-1,1,1-trifluoropropan-2-yl]pyridine-3-sulfonamide]	< 500 nM
CC1(NS(=O)(=O)c2ccc(-c3c(C#N)c4cc(CC(F)F)ccc4n3C3CCC3)nc2)CC1 [compound 696, 6-[3-cyano-1-cyclobutyl-5-(2,2-difluoroethyl)-1H-indol-2-yl]-N-(1-methylcyclopropyl)pyridine-3-sulfonamide]	< 500 nM
Cc1cc2c(cc1F)c(C#N)c(-c1ncc(S(=O)(=O)N[C@@H](C)C(F)(F)F)cn1)n2C1CCOCC1 [compound 753, 2-[3-cyano-5-fluoro-6-methyl-1-(tetrahydro-2H-pyran-4-yl)-1H-indol-2-yl]-N-[(2S)-1,1,1-trifluoropropan-2-yl]pyrimidine-5-sulfonamide]	< 500 nM
[2H]C([2H])([2H])c1cc2c(cc1F)c(C#N)c(-c1ccc(S(=O)(=O)N[C@@]([2H])(C)C(F)(F)F)cn1)n2-c1ncccn1 [compound 1107, 6-[3-cyano-5-fluoro-6-(1,1,1-trideuterium)methyl-1-(pyrimidin-2-yl)-1H-indol-2-yl]-N-[(2S)-1,1,1-trifluoro(2-deuterium)propan-2-yl]pyridine-3-sulfonamide]	< 500 nM
COC(=O)c1c(-c2ccc(S(=O)(=O)NC(C)(C)C)cn2)n(C2CCCC2)c2cc(C)c(F)cc12 [compound 755, methyl 2-[5-(tert-butylsulfamoyl)pyridin-2-yl]-1-cyclopentyl-5-fluoro-6-methyl-1H-indole-3-carboxylate]	< 500 nM
CC(C)(NS(=O)(=O)c1ccc(-c2c(C#N)c3cc(F)c(OC(F)F)cc3n2C2CCCC2)nc1)C(F)(F)F [compound 862, 6-[3-cyano-1-cyclopentyl-6-(difluoromethoxy)-5-fluoro-1H-indol-2-yl]-N-(1,1,1-trifluoro-2-methylpropan-2-yl)pyridine-3-sulfonamide]	< 500 nM
C[C@H](NS(=O)(=O)c1ccc(-c2c(C#N)c3cc(Cl)ccc3n2C2CCCC2)nc1)C1CC1 [compound 118, 6-(5-chloro-3-cyano-1-cyclopentyl-1H-indol-2-yl)-N-[(1S)-1-cyclopropylethyl]pyridine-3-sulfonamide]	< 500 nM
N#Cc1c(-c2ncc(S(=O)(=O)NC(CF)CF)cn2)n(C2CCCC2)c2ccc(Cl)cc12 [compound 188, 2-(5-chloro-3-cyano-1-cyclopentyl-1H-indol-2-yl)-N-(1,3-difluoropropan-2-yl)pyrimidine-5-sulfonamide]	< 500 nM
N#Cc1c(-c2ccc(S(=O)(=O)NC(CF)CF)cn2)n(C2CCC2)c2ccc(C(F)F)cc12 [compound 378, 6-[3-cyano-1-cyclobutyl-5-(difluoromethyl)-1H-indol-2-yl]-N-(1,3-difluoropropan-2-yl)pyridine-3-sulfonamide]	< 500 nM
C[C@@H](NS(=O)(=O)c1ccc(-c2c(C#N)c3ccc(F)cc3n2C2CCCCC2)nc1)C(F)(F)F [compound 252, 6-(3-cyano-1-cyclohexyl-6-fluoro-1H-indol-2-yl)-N-[(2R)-1,1,1-trifluoropropan-2-yl]pyridine-3-sulfonamide]	< 500 nM
